Data from patent publication US20060247261A1 (priority 2002, published 2006).

Target: T1, human cannabinoid CB2 receptor (Homo sapiens, UniProt P34972)
T1 construct: expressed in transfected cells; host or cells: Saccharomyces cerevisiae strain MMY23 (expresses a chimeric Gpa1/human Galpha-i3 G-protein alpha subunit)
Experiment: Cannabinoid CB2 receptor agonist activity, yeast reporter assay
Format: cell-based
Conditions: for Emax: read-out: efficacy (Emax) at the cloned human cannabinoid CB2 receptor
Description: Yeast (Saccharomyces cerevisiae) cells expressing the human cannabinoid CB2 receptor were generated by integration of an expression cassette into the ura3 chromosomal locus of yeast strain MMY23. This cassette consisted of DNA sequence encoding the human CB2 receptor flanked by the yeast GPD promoter to the 5′ end of CB2 and a yeast transcriptional terminator sequence to the 3′ end of CB2. MMY23 expresses a yeast/mammalian chimeric G-protein alpha subunit in which the C-terminal 5 amino acids of Gpa1 are replaced with the C-terminal 5 amino acids of human Gαi3 (as described in Brown et al. (2000), Yeast 16:11-22).
Agonists were prepared as 10 mM stocks in DMSO. […] Agonist solutions in DMSO (1% final assay volume) were transferred into black, clear bottom, microtitre plates from NUNC (96- or 384-well). […] Fluorescence was plotted against compound concentration and iteratively curve fitted using a four parameter fit to generate a concentration effect value.

T1 sequence (P34972 whole entry): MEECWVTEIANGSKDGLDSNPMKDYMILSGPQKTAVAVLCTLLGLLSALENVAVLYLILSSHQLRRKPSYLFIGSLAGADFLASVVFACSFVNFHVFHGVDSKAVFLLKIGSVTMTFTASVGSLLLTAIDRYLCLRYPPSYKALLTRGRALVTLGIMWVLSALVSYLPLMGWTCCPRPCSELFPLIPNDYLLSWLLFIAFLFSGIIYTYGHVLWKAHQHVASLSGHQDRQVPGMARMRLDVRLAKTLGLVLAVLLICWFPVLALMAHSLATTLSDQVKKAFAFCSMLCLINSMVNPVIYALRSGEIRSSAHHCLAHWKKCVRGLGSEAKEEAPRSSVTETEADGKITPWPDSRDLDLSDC

## Cc1ccc(CNC(=O)c2cnc(Nc3cccc(Cl)c3)nc2C(F)(F)F)cc1 [Example 78, 2-(3-Chloro-phenylamino)-4-trifluoromethyl-pyrimidine-5-carboxylic acid N-(4-methyl-benzyl)amide]
  EC50: > 1000 nM
  Emax: < 50%

## O=C(NCc1ccc(F)c(F)c1)c1cnc(Nc2cccc(Cl)c2)nc1C(F)(F)F [Example 81, 2-(3-Chloro-phenylamino)-4-trifluoromethyl-pyrimidine-5-carboxylic acid 3,4-difluoro-benzylamide]
  EC50: 20 to 1000 nM
  Emax: > 50%

## O=C(NCc1ccc(F)cc1)c1cnc(Nc2ccc(F)c(Cl)c2)nc1C(F)(F)F [Example 82, 2-(3-Chloro-4-fluoro-phenylamino)-4-trifluoromethyl-pyrimidine-5-carboxylic acid 4-fluoro-benzylamide]
  EC50: 20 to 1000 nM
  Emax: > 50%

## O=C(NCc1ccc(F)cc1)c1cnc(Nc2cccc(Cl)c2F)nc1C(F)(F)F [Example 83, 2-(3-Chloro-2-fluoro-phenylamino)-4-trifluoromethyl-pyrimidine-5-carboxylic acid 4-fluoro-benzylamide]
  EC50: 20 to 1000 nM
  Emax: > 50%

## O=C(NCc1ccc(F)cc1)c1cnc(Nc2cc(Cl)ccc2F)nc1C(F)(F)F [Example 84, 2-(5-Chloro-2-fluoro-phenylamino)-4-trifluoromethyl-pyrimidine-5-carboxylic acid 4-fluoro-benzylamide]
  EC50: 20 to 1000 nM
  Emax: > 50%

## O=C(NCc1ccc(F)cc1)c1cnc(Nc2cc(F)cc(F)c2)nc1C(F)(F)F [Example 85, 2-(3,5-Difluoro-phenylamino)-4-trifluoromethyl-pyrimidine-5-carboxylic acid 4-fluoro-benzylamide]
  EC50: 20 to 1000 nM
  Emax: > 50%

## N#Cc1ccc(Nc2ncc(C(=O)NCc3ccc(F)cc3)c(C(F)(F)F)n2)cc1Cl [Example 86, 2-(3-Chloro-4-cyano-phenylamino)-4-trifluoromethyl-pyrimidine-5-carboxylic acid 4-fluoro-benzylamide]
  EC50: 20 to 1000 nM
  Emax: > 50%

## COc1cccc(Nc2ncc(C(=O)NCc3ccncc3)c(C(F)(F)F)n2)c1 [Example 87]
  EC50: 20 to 1000 nM
  Emax: > 50%

## O=C(NCc1ccnc(F)c1)c1cnc(Nc2cccc(Br)c2)nc1C(F)(F)F [Example 88, 2-(3-Bromo-phenylamino)-4-trifluoromethyl-pyrimidine-5-carboxylic acid (2-fluoro-pyridin4-ylmethyl)-amide]
  EC50: 20 to 1000 nM
  Emax: > 50%

## O=C(NCc1ccnc(F)c1)c1cnc(Nc2cccc(F)c2)nc1C(F)(F)F [Example 89, 2-(3-Fluoro-phenylamino)-4-trifluoromethyl-pyrimidine-5-carboxylic acid (2-fluoro-pyridin-4-ylmethyl)-amide]
  EC50: 20 to 1000 nM
  Emax: > 50%

## O=C(NCc1ccnc(F)c1)c1cnc(Nc2cc(Cl)ccc2Cl)nc1C(F)(F)F [Example 90, 2-(2,5-Dichloro-phenylamino)-4-trifluoromethyl-pyrimidine-5-carboxylic acid (2-fluoro-pyridin-4-ylmethyl)-amide]
  EC50: 20 to 1000 nM
  Emax: > 50%

## O=C(NCc1ccnc(F)c1)c1cnc(Nc2cc(Cl)cc(Cl)c2)nc1C(F)(F)F [Example 91, 2-(3,5-Dichloro-phenylamino)-4-trifluoromethyl-pyrimidine-5-carboxylic acid (2-fluoro-pyridin-4-ylmethyl)-amide]
  EC50: 20 to 1000 nM
  Emax: > 50%

## O=C(NCc1ccnc(F)c1)c1cnc(Nc2ccc(Cl)c(Cl)c2)nc1C(F)(F)F [Example 92, 2-(3,4-Dichloro-phenylamino)-4-trifluoromethyl-pyrimidine-5-carboxylic acid (2-fluoro-pyridin-4-ylmethyl)-amide]
  EC50: 20 to 1000 nM
  Emax: > 50%

## O=C(NCc1ccnc(F)c1)c1cnc(Nc2c(Cl)cccc2Cl)nc1C(F)(F)F [Example 93, 2-(2,6-Dichloro-phenylamino)-4-trifluoromethyl-pyrimidine-5-carboxylic acid (2-fluoro-pyridin-4-ylmethyl)-amide]
  EC50: 20 to 1000 nM
  Emax: > 50%

## O=C(NCc1ccnc(F)c1)c1cnc(Nc2cccc(Cl)c2Cl)nc1C(F)(F)F [Example 94, 2-(2,3-Dichloro-phenylamino)-4-trifluoromethyl-pyrimidine-5-carboxylic acid (2-fluoro-pyridin-4-ylmethyl)-amide]
  EC50: 20 to 1000 nM
  Emax: > 50%

## O=C(NCc1ccnc(F)c1)c1cnc(Nc2ccc(Cl)cc2Cl)nc1C(F)(F)F [Example 95, 2-(2,4-Dichloro-phenylamino)-4-trifluoromethyl-pyrimidine-5-carboxylic acid (2-fluoro-pyridin-4-ylmethyl)-amide]
  EC50: 20 to 1000 nM
  Emax: > 50%

## CN(Cc1ccccc1)C(=O)c1cnc(Nc2ccccc2Cl)nc1C(F)(F)F [Example 96, 2-(2-Chloro-phenylamino)-4-trifluoromethyl-pyrimidine-5-carboxylic acid benzyl-methyl-amide]
  Emax: > 50%

## N#Cc1cccc(Nc2ncc(C(=O)NCc3ccccc3)c(C(F)(F)F)n2)c1 [Example 97, 2-(3-Cyano-phenylamino)-4-trifluoromethyl-pyrimidine-5-carboxylic acid benzylamide]
  EC50: 20 to 1000 nM
  Emax: > 50%

## O=C(NCc1ccccc1)c1cnc(Nc2c(Cl)cccc2Cl)nc1C(F)(F)F [Example 98, 2-(2,6-Dichloro-phenylamino)-4-trifluoromethyl-pyrimidine-5-carboxylic acid benzylamide]
  EC50: 20 to 1000 nM
  Emax: > 50%

## O=C(NCc1ccc(F)cc1)c1cnc(Nc2cccc(Cl)c2Cl)nc1C(F)(F)F [Example 99, 2-(2,3-Dichloro-phenylamino)-4-trifluoromethyl-pyrimidine-5-carboxylic acid 4-fluoro-benzylamide]
  EC50: 20 to 1000 nM
  Emax: > 50%

## O=C(NCc1ccc(F)cc1)c1cnc(Nc2ccc(Cl)cc2Cl)nc1C(F)(F)F [Example 100, 2-(2,4-Dichloro-phenylamino)-4-trifluoromethyl-pyrimidine-5-carboxylic acid 4-fluoro-benzylamide]
  EC50: 20 to 1000 nM
  Emax: > 50%

## O=C(NCc1ccc(F)cc1)c1cnc(Nc2cc(Cl)ccc2Cl)nc1C(F)(F)F [Example 101, 2-(2,5-Dichloro-phenylamino)-4-trifluoromethyl-pyrimidine-5-carboxylic acid 4-fluoro-benzylamide]
  EC50: 20 to 1000 nM
  Emax: > 50%

## O=C(NCc1ccc(F)cc1)c1cnc(Nc2ccc(Cl)c(Cl)c2)nc1C(F)(F)F [Example 102, 2-(3,4-Dichloro-phenylamino)-4-trifluoromethyl-pyrimidine-5-carboxylic acid 4-fluoro-benzylamide]
  EC50: 20 to 1000 nM
  Emax: > 50%

## O=C(NCc1ccc(F)cc1F)c1cnc(Nc2cccc(Cl)c2)nc1C(F)(F)F [Example 103, 2-(3-Chloro-phenylamino)-4-trifluoromethyl-pyrimidine-5-carboxylic acid 2,4-difluoro-benzylamide]
  EC50: 20 to 1000 nM
  Emax: > 50%

## O=C(NCc1ccc(F)cc1)c1cnc(Nc2ccc(C(F)(F)F)c(F)c2)nc1C(F)(F)F [Example 104, 2-(3-Fluoro-4-trifluoromethyl-phenylamino)-4-trifluoromethyl-pyrimidine-5-carboxylic acid 4-fluoro-benzylamide]
  EC50: 20 to 1000 nM
  Emax: > 50%

## NC(=O)c1ccc(CNC(=O)c2cnc(Nc3cccc(Cl)c3)nc2C(F)(F)F)cc1 [Example 105, 2-(3-Chloro-phenylamino)-4-trifluoromethyl-pyrimidine-5-carboxylic acid 4-carbarnoyl-benzylamide]
  EC50: > 1000 nM
  Emax: < 50%

## CC(C)(C)c1ccc(CNC(=O)c2cnc(Nc3cccc(Cl)c3)nc2C(F)(F)F)cc1 [Example 106, 2-(3-Chloro-phenylamino)-4-trifluoromethyl-pyrimidine-5-carboxylic acid 4-tert-butyl-benzylamide]
  EC50: > 1000 nM
  Emax: < 50%

## CC(C)(C)OC(=O)Nc1ccc(CNC(=O)c2cnc(Nc3cccc(Cl)c3)nc2C(F)(F)F)cc1 [Example 107]
  EC50: > 1000 nM
  Emax: < 50%

## C[C@@H](NC(=O)c1cnc(Nc2cccc(Cl)c2)nc1C(F)(F)F)c1ccccc1 [Example 108, 2-(3-Chloro-phenylamino)-4-trifluoromethyl-pyrimidine-5-carboxylic acid ((R)-1-phenyl-ethyl)-amide]
  EC50: > 1000 nM
  Emax: < 50%

## O=C(NCc1ccc(F)c(Cl)c1)c1cnc(Nc2cccc(Cl)c2)nc1C(F)(F)F [Example 109, 2-(3-Chloro-phenylamino)-4-trifluoromethyl-pyrimidine-5-carboxylic acid 3-chloro,4-fluoro-benzylamide]
  EC50: > 1000 nM
  Emax: < 50%

## CN(Cc1ccc(F)cc1)C(=O)c1cnc(Nc2cccc(Cl)c2)nc1C(F)(F)F [Example 110, 2-(3-Chloro-phenylamino)-4-trifluoromethyl-pyrimidine-5-carboxylic acid (4-fluoro-benzyl)-methyl-amide]
  EC50: > 1000 nM
  Emax: < 50%

## O=C(NCc1ccc(F)cc1)c1cnc(Nc2ccc(OC(F)(F)F)c(Cl)c2)nc1C(F)(F)F [Example 111, 2-(3-Chloro-4-trifluoromethoxy-phenylamino)-4-trifluoromethyl-pyrimidine-5-carboxylic acid 4-fluoro-benzylamide]
  EC50: > 1000 nM
  Emax: < 50%
